Key:
HCT-116 = experiment: cells; conditions: Homo sapiens, HCT-116, 48 h
Description: Cytotoxicity against human HCT-116 cells assessed as reduction in cell viability incubated for 48 hrs by Hoechst-33342 staining based cell counting method (Rvb > 25 microM)

MCF7 = experiment: cells; conditions: Homo sapiens, MCF7, 48 h
[1] = target: Glycogen synthase kinase-3 beta (Homo sapiens) (UniProt P49841); experiment: Inhibition of human GSK3beta assessed as residual activity at 10 uM by ADP-Glo assay relative to control
[2] = target: T1, Serine/threonine-protein kinase haspin (Homo sapiens) (UniProt Q8TF76); experiment: Inhibition of human HASPIN assessed as residual activity at 10 uM by ADP-Glo assay relative to control
T1 sequence (whole entry): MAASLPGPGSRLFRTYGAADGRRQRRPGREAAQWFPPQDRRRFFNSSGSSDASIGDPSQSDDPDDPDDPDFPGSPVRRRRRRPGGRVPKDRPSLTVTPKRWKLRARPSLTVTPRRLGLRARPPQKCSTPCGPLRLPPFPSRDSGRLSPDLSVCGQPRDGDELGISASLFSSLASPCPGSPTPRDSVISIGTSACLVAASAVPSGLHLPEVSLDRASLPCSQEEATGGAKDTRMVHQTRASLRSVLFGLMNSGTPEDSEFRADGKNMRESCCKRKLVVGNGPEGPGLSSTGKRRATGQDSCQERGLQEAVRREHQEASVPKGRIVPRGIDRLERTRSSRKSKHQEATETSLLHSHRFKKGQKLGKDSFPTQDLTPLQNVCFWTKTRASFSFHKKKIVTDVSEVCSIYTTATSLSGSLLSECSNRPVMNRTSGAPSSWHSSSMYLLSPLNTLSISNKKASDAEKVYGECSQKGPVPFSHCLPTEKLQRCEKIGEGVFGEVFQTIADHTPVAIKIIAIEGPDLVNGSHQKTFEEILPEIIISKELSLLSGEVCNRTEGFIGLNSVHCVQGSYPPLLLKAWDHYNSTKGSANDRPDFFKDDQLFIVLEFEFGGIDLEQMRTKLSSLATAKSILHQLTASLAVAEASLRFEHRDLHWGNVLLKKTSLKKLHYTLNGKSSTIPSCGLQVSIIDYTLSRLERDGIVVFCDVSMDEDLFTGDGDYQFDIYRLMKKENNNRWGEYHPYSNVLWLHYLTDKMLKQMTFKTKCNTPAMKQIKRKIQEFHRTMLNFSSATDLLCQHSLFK

PC-3 = experiment: cells; conditions: Homo sapiens, PC-3, 48 h
Description: Cytotoxicity against human PC-3 cells assessed as reduction in cell viability incubated for 48 hrs by Hoechst-33342 staining based cell counting method (Rvb > 25 microM)

NCI-H727 = experiment: cells; conditions: Homo sapiens, NCI-H727, 48 h
Description: Cytotoxicity against human NCI-H727 cells assessed as reduction in cell viability incubated for 48 hrs by Hoechst-33342 staining based cell counting method (Rvb > 25 microM)

[3] = target: DYRK1A (dual specificity tyrosine-phosphorylation-regulated kinase 1A) (Rattus norvegicus, UniProt Q63470); experiment: Inhibition of rat DYRK1A (1 to 499 residues) assessed as residual activity at 10 uM by ADP-Glo assay relative to control; conditions: rat DYRK1A enzyme (residues 1 to 499), read-out: Activity
[4] = target: CDK9/cyclin T1 (Homo sapiens) (UniProt O60563+P50750); experiment: Inhibition of human CDK9/CyclinT assessed as residual activity at 10 uM by ADP-Glo assay relative to control; type: protein-complex assay
Fibroblast = experiment: cells; conditions: Homo sapiens, 48 h
Description: Cytotoxicity against human Fibroblast cells assessed as reduction in cell viability incubated for 48 hrs by Hoechst-33342 staining based cell counting method (Rvb > 25 microM)

MDA-MB-231 = experiment: cells; conditions: Homo sapiens, MDA-MB-231, 48 h
Description: Cytotoxicity against human MDA-MB-231 cells assessed as reduction in cell viability incubated for 48 hrs by Hoechst-33342 staining based cell counting method (Rvb > 25 microM)

Huh-7 = experiment: cells; conditions: Homo sapiens, Huh-7, 48 h
[5] = target: Cyclin-dependent kinase 5/CDK5 activator 1 (Homo sapiens) (UniProt Q00535+Q15078); experiment: Inhibition of human CDK5/p25 assessed as residual activity at 10 uM by ADP-Glo assay relative to control; type: protein-complex assay
[6] = target: Dual specificity protein kinase CLK1 (Mus musculus) (UniProt P22518); experiment: Inhibition of mouse CLK1 assessed as residual activity at 10 uM by ADP-Glo assay relative to control
[7] = target: Casein kinase I isoform epsilon (Homo sapiens) (UniProt P49674); experiment: Inhibition of human CK1epsilon assessed as residual activity at 10 uM by ADP-Glo assay relative to control
Caco-2 = experiment: cells; conditions: Homo sapiens, Caco-2, 48 h
[8] = target: Serine/threonine-protein kinase pim-1 (Homo sapiens) (UniProt P11309); experiment: Inhibition of human PIM1 assessed as residual activity at 10 uM by ADP-Glo assay relative to control
[9] = target: Dual specificity protein kinase CLK1 (Mus musculus) (UniProt P22518); experiment: Inhibition of mouse CLK1 assessed as residual activity by ADP-Glo assay
[10] = target: T2, Dual specificity tyrosine-phosphorylation-regulated kinase 2 (Homo sapiens, UniProt Q92630); experiment: Inhibition of human DYRK2 at 100 uM by ADP-Glo assay
T2 sequence (Q92630 whole entry): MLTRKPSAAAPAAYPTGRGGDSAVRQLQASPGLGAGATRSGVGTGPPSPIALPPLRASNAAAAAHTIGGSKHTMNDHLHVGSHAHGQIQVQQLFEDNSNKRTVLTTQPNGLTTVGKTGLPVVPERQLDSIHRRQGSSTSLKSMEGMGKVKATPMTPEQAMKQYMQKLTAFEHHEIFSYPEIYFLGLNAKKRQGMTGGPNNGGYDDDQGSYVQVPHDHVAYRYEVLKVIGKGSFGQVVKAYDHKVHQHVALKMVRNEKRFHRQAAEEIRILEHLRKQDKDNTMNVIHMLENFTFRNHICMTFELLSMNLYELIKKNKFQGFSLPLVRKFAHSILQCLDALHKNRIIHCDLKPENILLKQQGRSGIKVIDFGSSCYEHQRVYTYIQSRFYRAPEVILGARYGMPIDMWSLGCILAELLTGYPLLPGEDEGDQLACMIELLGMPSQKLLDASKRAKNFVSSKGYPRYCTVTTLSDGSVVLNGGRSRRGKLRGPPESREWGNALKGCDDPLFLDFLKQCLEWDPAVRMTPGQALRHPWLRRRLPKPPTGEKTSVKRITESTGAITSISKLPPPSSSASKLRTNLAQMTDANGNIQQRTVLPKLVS

[11] = target: Dual specificity tyrosine-phosphorylation-regulated kinase 1A (Homo sapiens, UniProt Q13627); experiment: Inhibition of human DYRK1A at 100 uM by ADP-Glo assay
[12] = target: Dual specificity tyrosine-phosphorylation-regulated kinase 1A (Rattus norvegicus, UniProt Q63470); experiment: Inhibition of rat DYRK1A (1 to 499 residues) assessed as residual activity at 100 uM by ADP-Glo assay
[13] = target: Dual specificity tyrosine-phosphorylation-regulated kinase 1B (Homo sapiens, UniProt Q9Y463); experiment: Inhibition of human DYRK1B at 100 uM by ADP-Glo assay
Chain of Dual specificity tyrosine-phosphorylation-regulated kinase 1B (Q9Y463 whole entry): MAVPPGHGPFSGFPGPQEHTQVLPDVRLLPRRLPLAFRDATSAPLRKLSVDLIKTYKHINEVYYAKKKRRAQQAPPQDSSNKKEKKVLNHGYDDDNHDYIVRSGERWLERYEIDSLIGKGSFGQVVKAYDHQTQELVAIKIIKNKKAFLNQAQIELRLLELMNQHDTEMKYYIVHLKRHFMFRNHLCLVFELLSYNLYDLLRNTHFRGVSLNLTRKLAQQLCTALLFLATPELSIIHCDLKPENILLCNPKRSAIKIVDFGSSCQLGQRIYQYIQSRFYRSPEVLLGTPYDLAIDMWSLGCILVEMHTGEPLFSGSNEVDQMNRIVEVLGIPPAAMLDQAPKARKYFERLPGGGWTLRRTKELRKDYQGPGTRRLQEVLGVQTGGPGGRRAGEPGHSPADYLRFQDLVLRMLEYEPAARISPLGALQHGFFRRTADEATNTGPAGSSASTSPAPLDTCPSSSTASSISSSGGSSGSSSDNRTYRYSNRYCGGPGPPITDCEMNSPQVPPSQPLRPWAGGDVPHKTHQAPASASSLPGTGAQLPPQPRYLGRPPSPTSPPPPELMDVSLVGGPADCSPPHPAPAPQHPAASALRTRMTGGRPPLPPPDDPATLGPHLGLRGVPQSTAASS

Chain of Serine/threonine-protein kinase pim-1 (Homo sapiens) (P11309 whole entry, looked up): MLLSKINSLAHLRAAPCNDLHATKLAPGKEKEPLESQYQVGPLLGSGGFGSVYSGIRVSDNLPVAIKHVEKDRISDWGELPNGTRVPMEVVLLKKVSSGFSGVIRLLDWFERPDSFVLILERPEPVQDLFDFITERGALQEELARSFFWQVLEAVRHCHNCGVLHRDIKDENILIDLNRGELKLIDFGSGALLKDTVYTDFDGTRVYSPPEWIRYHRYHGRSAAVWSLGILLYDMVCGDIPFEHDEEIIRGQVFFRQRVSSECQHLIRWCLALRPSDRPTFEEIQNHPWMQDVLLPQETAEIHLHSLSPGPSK
Chain of Cyclin-dependent kinase 5/CDK5 activator 1 (Homo sapiens) (Q00535 whole entry): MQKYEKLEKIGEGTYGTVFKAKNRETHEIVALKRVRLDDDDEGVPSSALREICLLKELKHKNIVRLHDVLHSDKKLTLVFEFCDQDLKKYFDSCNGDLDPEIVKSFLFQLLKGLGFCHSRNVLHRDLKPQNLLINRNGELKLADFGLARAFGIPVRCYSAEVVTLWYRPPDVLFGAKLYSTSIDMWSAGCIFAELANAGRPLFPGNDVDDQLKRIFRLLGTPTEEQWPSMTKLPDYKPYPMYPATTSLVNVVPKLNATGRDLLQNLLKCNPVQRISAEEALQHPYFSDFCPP
Chain of Cyclin-dependent kinase 5/CDK5 activator 1 (Homo sapiens) (Q15078 99-307 partner limits assumed): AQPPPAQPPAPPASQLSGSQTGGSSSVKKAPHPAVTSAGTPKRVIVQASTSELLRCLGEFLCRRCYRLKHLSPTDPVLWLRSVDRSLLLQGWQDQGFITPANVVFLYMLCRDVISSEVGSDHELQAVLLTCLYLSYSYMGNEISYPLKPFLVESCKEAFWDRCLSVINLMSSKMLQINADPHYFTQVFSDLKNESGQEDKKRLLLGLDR
Chain of Glycogen synthase kinase-3 beta (Homo sapiens) (P49841 whole entry, looked up): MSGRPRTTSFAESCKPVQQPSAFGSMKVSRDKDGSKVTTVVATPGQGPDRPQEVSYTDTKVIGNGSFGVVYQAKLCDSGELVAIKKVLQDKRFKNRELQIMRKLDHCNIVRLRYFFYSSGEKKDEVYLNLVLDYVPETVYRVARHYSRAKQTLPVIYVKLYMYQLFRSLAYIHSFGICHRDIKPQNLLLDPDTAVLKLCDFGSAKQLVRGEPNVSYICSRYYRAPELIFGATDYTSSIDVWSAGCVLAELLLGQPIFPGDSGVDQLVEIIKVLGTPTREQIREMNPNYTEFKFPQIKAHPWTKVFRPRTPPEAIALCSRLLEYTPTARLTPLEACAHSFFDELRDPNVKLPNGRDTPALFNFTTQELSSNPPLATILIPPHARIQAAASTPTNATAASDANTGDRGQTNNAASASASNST
Chain of Dual specificity protein kinase CLK1 (Mus musculus) (P22518 whole entry, looked up, canonical isoform): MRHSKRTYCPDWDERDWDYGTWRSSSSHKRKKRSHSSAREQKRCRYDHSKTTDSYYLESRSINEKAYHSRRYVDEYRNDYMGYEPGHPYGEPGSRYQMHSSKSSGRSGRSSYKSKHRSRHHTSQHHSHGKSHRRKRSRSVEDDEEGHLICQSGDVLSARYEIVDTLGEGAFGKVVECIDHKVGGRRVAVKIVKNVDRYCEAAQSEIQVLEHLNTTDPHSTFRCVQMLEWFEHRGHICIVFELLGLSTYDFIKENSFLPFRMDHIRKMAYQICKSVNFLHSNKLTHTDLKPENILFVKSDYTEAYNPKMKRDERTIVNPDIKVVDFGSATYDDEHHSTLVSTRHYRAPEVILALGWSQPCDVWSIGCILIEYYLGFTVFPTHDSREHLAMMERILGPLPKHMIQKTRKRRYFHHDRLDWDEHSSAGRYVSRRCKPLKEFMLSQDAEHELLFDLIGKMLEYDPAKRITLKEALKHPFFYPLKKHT
Chain of Casein kinase I isoform epsilon (Homo sapiens) (P49674 whole entry, looked up, canonical isoform): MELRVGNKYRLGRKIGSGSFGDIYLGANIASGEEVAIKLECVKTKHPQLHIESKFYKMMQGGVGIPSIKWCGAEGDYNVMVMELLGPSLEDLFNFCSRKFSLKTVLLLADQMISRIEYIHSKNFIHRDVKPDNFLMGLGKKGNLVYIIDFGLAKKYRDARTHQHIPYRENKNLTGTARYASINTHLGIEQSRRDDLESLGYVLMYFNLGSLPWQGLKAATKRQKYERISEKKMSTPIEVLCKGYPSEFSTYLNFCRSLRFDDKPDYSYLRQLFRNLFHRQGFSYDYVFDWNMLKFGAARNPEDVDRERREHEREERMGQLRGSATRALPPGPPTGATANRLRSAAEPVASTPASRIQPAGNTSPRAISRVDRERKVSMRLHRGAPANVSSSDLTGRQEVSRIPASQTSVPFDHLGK

Clc1cccc(Nc2ncc3cccc(OCc4cn(-c5ccc(Br)cc5)nn4)c3n2)c1
IC50 (HCT-116): 17 µM | IC50 (MCF7): 9 µM | Activity [1]: 77% | Activity [2]: 100% | IC50 (PC-3): 18 µM | IC50 (NCI-H727): 8 µM | activity at 10 µM [3]: 95% | Activity [4]: 81% | IC50 (Fibroblast): > 25 µM | IC50 (MDA-MB-231): 33 µM | IC50 (Huh-7): 14 µM | Activity [5]: 100% | Activity [6]: 56% | Activity [7]: 79% | IC50 (Caco-2): 11 µM | Activity [8]: 79%

COc1ccc(-n2cc(COc3cccc4cnc(Nc5cccc(Cl)c5)nc34)nn2)cc1
Activity [1]: 47% | Activity [2]: 100% | activity at 10 µM [3]: 94% | Activity [4]: 100% | Activity [5]: 100% | Activity [6]: 70% | Activity [7]: 86% | Activity [8]: 69%

Clc1cccc(Nc2ncc3cccc(OCc4cn(Cc5ccccc5)nn4)c3n2)c1
Activity [1]: 48% | Activity [2]: 83% | activity at 10 µM [3]: 81% | Activity [4]: 100% | Activity [5]: 87% | Activity [6]: 65% | Activity [7]: 79% | Activity [8]: 84%

Cc1ccc(-n2cc(COc3cccc4cnc(Nc5cccc(Cl)c5)nc34)nn2)cc1[N+](=O)[O-]
Activity [1]: 14% | Activity [2]: 44% | activity at 10 µM [3]: 74% | Activity [4]: 25% | Activity [5]: 40% | IC50 [9]: 3 µM | Activity [6]: 16% | Activity [7]: 41% | Activity [8]: 45%

COc1cccc2c1C(=O)c1c(O)c3c(c(O)c1C2=O)C[C@@](O)(C(=O)CO)C[C@@H]3O[C@H]1C[C@H](N)[C@H](O)[C@H](C)O1 [DOXORUBICIN]
IC50 (PC-3): 0.06 µM | IC50 (Fibroblast): 0.015 µM | IC50 (MDA-MB-231): 0.01 µM | IC50 (Huh-7): 0.036 µM | IC50 (Caco-2): 0.05 µM

CC[C@H](CO)Nc1nc(NCc2ccccc2)c2ncn(C(C)C)c2n1 [SELICICLIB]
IC50 (MCF7): 9 µM | IC50 (NCI-H727): 28 µM | IC50 (Fibroblast): 6 µM | IC50 (Huh-7): 14 µM

Clc1ccc(-n2cc(COc3cccc4cnc(Nc5cccc(Cl)c5)nc34)nn2)cc1
IC50 (HCT-116): > 25 µM | IC50 (MCF7): > 25 µM | Activity [1]: 87% | Activity [2]: 100% | IC50 (PC-3): > 25 µM | IC50 (NCI-H727): > 25 µM | activity at 10 µM [3]: 99% | Activity [4]: 95% | IC50 (Fibroblast): > 25 µM | IC50 (MDA-MB-231): > 25 µM | IC50 (Huh-7): 24 µM | Activity [5]: 100% | Activity [6]: 85% | Activity [7]: 100% | IC50 (Caco-2): 24 µM | Activity [8]: 86%

CC(=O)O[C@H]1C(=O)[C@@]2(C)[C@H]([C@H](OC(=O)c3ccccc3)[C@]3(O)C[C@H](OC(=O)[C@H](O)[C@@H](NC(=O)c4ccccc4)c4ccccc4)C(C)=C1C3(C)C)[C@]1(OC(C)=O)CO[C@@H]1C[C@@H]2O [PACLITAXEL]
IC50 (HCT-116): 0.002 µM | IC50 (PC-3): 0.002 µM | IC50 (NCI-H727): 0.01 µM | IC50 (Fibroblast): 0.1 µM | IC50 (MDA-MB-231): 0.03 µM | IC50 (Huh-7): 0.013 µM | IC50 (Caco-2): 0.014 µM

COc1ccccc1-n1cc(COc2cccc3cnc(Nc4cccc(Cl)c4)nc23)nn1
IC50 (HCT-116): > 25 µM | IC50 (MCF7): 6 µM | Activity [1]: 61% | Activity [2]: 100% | IC50 (PC-3): 8 µM | IC50 (NCI-H727): > 25 µM | activity at 10 µM [3]: 100% | Activity [4]: 74% | IC50 (Fibroblast): > 25 µM | IC50 (MDA-MB-231): > 25 µM | IC50 (Huh-7): 7 µM | Activity [5]: 94% | Activity [6]: 26% | Activity [7]: 96% | IC50 (Caco-2): > 25 µM | Activity [8]: 84%

COc1cccc(-n2cc(COc3cccc4cnc(Nc5cccc(Cl)c5)nc34)nn2)c1
IC50 (HCT-116): 23 µM | IC50 (MCF7): 8 µM | Activity [1]: 47% | Activity [2]: 100% | IC50 (PC-3): 10 µM | IC50 (NCI-H727): > 25 µM | activity at 10 µM [3]: 87% | Activity [4]: 85% | IC50 (Fibroblast): 18 µM | IC50 (MDA-MB-231): 25 µM | IC50 (Huh-7): 23 µM | Activity [5]: 94% | Activity [6]: 27% | Activity [7]: 40% | IC50 (Caco-2): 20 µM | Activity [8]: 79%

Cc1ccc(-n2cc(COc3cccc4cnc(Nc5cccc(Cl)c5)nc34)nn2)c([N+](=O)[O-])c1
inhibition (INH) [10]: Not Active | Activity [2]: 94% | Activity [4]: 54% | Activity [5]: 84% | inhibition (INH) [11]: Not Active | IC50 [9]: 0.12 µM | Activity [6]: 11% | inhibition (INH) [12]: Not Active | inhibition (INH) [13]: Not Active | Activity [8]: 81%

Clc1cccc(Nc2ncc3cccc(OCc4cn(Cc5c(Cl)cccc5Cl)nn4)c3n2)c1
IC50 (HCT-116): 24 µM | IC50 (MCF7): 6 µM | Activity [1]: 58% | Activity [2]: 59% | IC50 (PC-3): 7 µM | IC50 (NCI-H727): 5 µM | activity at 10 µM [3]: 75% | Activity [4]: 53% | IC50 (Fibroblast): 14 µM | IC50 (MDA-MB-231): 21 µM | IC50 (Huh-7): 7 µM | Activity [5]: 94% | Activity [6]: 48% | Activity [7]: 100% | IC50 (Caco-2): 9 µM | Activity [8]: 97%

Clc1cccc(Nc2ncc3cccc(OCc4cn(-c5cc(Cl)cc(Cl)c5)nn4)c3n2)c1
IC50 (HCT-116): 8 µM | IC50 (MCF7): 5 µM | Activity [1]: 35% | Activity [2]: 77% | IC50 (PC-3): 8 µM | IC50 (NCI-H727): 7 µM | activity at 10 µM [3]: 100% | Activity [4]: 64% | IC50 (Fibroblast): 8 µM | IC50 (MDA-MB-231): 9 µM | IC50 (Huh-7): 7 µM | Activity [5]: 90% | Activity [6]: 81% | Activity [7]: 55% | IC50 (Caco-2): 8 µM | Activity [8]: 78%

O=[N+]([O-])c1ccc(Cn2cc(COc3cccc4cnc(Nc5cccc(Cl)c5)nc34)nn2)cc1
Activity [1]: 60% | Activity [2]: 76% | activity at 10 µM [3]: 88% | Activity [4]: 72% | Activity [5]: 90% | Activity [6]: 39% | Activity [7]: 65% | Activity [8]: 77%

O=[N+]([O-])c1ccc(-n2cc(COc3cccc4cnc(Nc5cccc(Cl)c5)nc34)nn2)cc1
Activity [1]: 87% | Activity [2]: 100% | activity at 10 µM [3]: 100% | Activity [4]: 63% | Activity [5]: 94% | Activity [6]: 26% | Activity [7]: 86% | Activity [8]: 79%
